Measurements: patent publication US20240197762A1, “NUTRITIONAL COMPOSITION FOR STIMULATIONG BIFIDOBACTERIA” (FrieslandCampina Nederland B.V., priority 2021, published 2024)

Test system: bifidobacteria (B. adolescentis and B. longum)
Experiment: Fecal fermentations simulating the distal colon of elderly (microMatrix, shotgun metagenomics)
Format: cell-based, human (pool of fecal material of healthy 70+ human subjects)
Conditions: oligosaccharides at 0.5 wt % final concentration, 7 hours of fermentation, pH 6.8, 37° C., compared to the blanc; FIG. 1
Description: Fecal fermentations were performed in a 24 well plate using the microMatrix™ (Applikon Biotechnology) as described in M. M. O'Donnell et al., Front. Microbiol., vol. 9, Aug. 10, 2018, article 1844. The wells were filled in the anaerobic chamber with medium (composition: see Table 1) to which the oligosaccharides GOS (Biotis™ GOS ex-FrieslandCampina), 2′-FL (Aequival™ 2′-FL, ex-FrieslandCampina), or mixtures thereof were added at a final concentration of 0 (blanc) or 0.5 wt % (every condition in duplicate). The plate was put in the microMatrix™ for about 20 minutes to reduce the dissolved oxygen concentration to below 5% and to increase the temperature of the medium to 37° C. After these 20 minutes, the plate was inoculated with a pool of fecal material of healthy 70+ human subjects and fermentations were started. During the fermentations, the pH of was controlled at pH 6.8 with a dead zone of 0.1 using ammonium gas and CO2. The plates were orbitally shaken at 300 rpm. Mixed gas (CO2/H2/N2: 10/5/85) was used to keep the cultures anaerobic during fermentation. After 7 hours of fermentation a sample of 1 ml was taken. Fecal samples of eight healthy elderly were included in the pool. […]

Substance: 2′-fucosyllactose [2′-FL]
- relative abundance of B. adolescentis and B. longum and their combined amount, relative to total bacteria content: increased
